Data set [1] is described as follows: Rat PK after single intramuscular (IM) administration of prodrugs, parent MI #1 measured in plasma. Also noted: unit not given here. The format is in vivo. As to conditions: male SD rats, IM 20 mg/kg. The text has this: FIG. 2 is a concentration vs time curve of the plasma concentrations of parent MI #1 following a single Intramuscular (IM) administration of the Prodrugs and parent MI #1 to male SD rats. […] Additional pharmacokinetic data collected from the same experiments summarized in FIG. 2 is contained in the table below.
Animal strain: Sprague Dawley (SD) rat, purchased from Shanghai SLAC Laboratory Animal Co., Ltd. Sex: male; Age: 6-8 weeks; BW: 200-250 g, N=30 rats (N=3 per prodrug); Food status: Free access to food and water for the entire in-life phase.
Dose: 20 mg/kg (2 mL/kg, 10 mg/mL), IM injection; Formulation: 1% Kolliphor P188+4.5% Mannitol+94.5% Milli-Q Water;
N=3 rats/time point for each compound via IM administration
Sampling at 0.5, 1, 3, 5 and 7 hr, 1, 2, 3, 4, 5, 6 and 7 days post dose then 2×/week for a total of 8 weeks, 12*8 time points, serial bleeding for plasma only.
* Weekly interim analysis of the plasma samples (12 time points) to get an early read on the PK of the construct Blood collection and processing: The animal was restrained manually and approximately 150 μL blood per time point was collected in tubes containing K2EDTA anticoagulant. The sample was centrifuged at 2200 g for 10 min at 2-8° C. for plasma. The plasma samples were stored immediately at −70° C.
LC-MS/MS method was developed to quantitate both prodrugs and parent in plasma. The samples were analyzed in duplicate. Two sets of standard curves and three levels of QCs were run in each plate. Both the standards and QCs were run in duplicate.
WinNonlin V 6.4 statistics software (Pharsight Corporation, California, USA) was used to generate pharmacokinetics parameters (Tmax, Cmax, T1/2, AUC, MRT etc).

For another data set, the system named is HIV. As to conditions: cited from earlier work.
Data set [2] can be described thus: Single dose mouse PK study, oral dose of prodrug or parent, parent MI #3 measured. The format is in vivo. To be noted: male CD1 mice, PO 5 mg/kg. How it is done:
A single dose mouse PK study was conducted following an oral dose of the prodrug that was prepared as Example 1, being dosed and measuring parent maturation inhibitor (MI) #3, and compared to PK parameters with Parent MI #3 being dosed in male CD1 mice. In the current study, the formulation for parent MI #3 was 0.5% Methocel A4M:0.1% Tween 80:99.4% water. For the prodrug of Example 1, the formulation was 2% Dimethylacetamide:10% ethanol: 87.5% PEG 400:0.5% Tween 80.
Following oral administration of the prodrug, all prodrug concentrations at all timepoints were BLQ. As shown in the table below the exposure of the parent MI #3 obtained from dosing the prodrug was higher than that seen with dosing a crystalline suspension of the parent MI #3.

The nature of data set [3]: MI Parent #3 mouse PK, IV solution. The format is in vivo. To be noted: dose 1 (printed mg).
A short description of data set [4]: Mouse PK after subcutaneous (SQ) suspension doses, MI #3 measured in plasma. The format is in vivo. As to conditions: male CD-1 mice, SQ 20 mg/kg suspension, MI Parent #3 measured in plasma. The procedure: FIG. 1 is a graph of concentration vs. time from plasma of MI #3 in ng/mL vs time in hours following subcutaneous (SQ) doses of MI3 # or the prodrugs from Examples 3, 4, and 5 as suspensions in 1% Kolliphor P 188/2% PEG 3350/3.5% Mannitol/93.5% water at 20 mg/kg to male CD-1 mice. […] Exposure of Parent MI #3 decreased 23-fold, 16-fold, and 3-fold after administration of Example 3, 4 and 5, respectively. The presence of the prodrugs was not observed in plasma. Although the exposure is lower than when dosed with parent itself, the half-life of Parent MI #3 is longer after administration of all three prodrugs showing the potential to be useful for less frequent dosing.
Subcutaneous (SQ) doses of each of the compounds from Examples 3, 4, and 5 as suspensions (Dose conc. 4 mg/mL, Dose volume 5 mL/kg) in 1% Kolliphor P 188/2% PEG 3350/3.5% Mannitol/93.5% water at 20 mg/kg to 3 male CD-1 mice (Cr1:CD1 (ICR)) Charles River Laboratories, 25-30gs at dose initiation, age as appropriate for weight. The concentration of Parent MI #3 and prodrugs were measured in the plasma of animals of all three groups at time points of 0.5, 1, 3, 5, 7, 24, 48, 72, 96, 120, 144, and 168 hours. The collection conditions were K2EDTA and the volume/timepoint was 30 μL. The presence of the prodrugs was not observed in plasma for any group.
LC-MS/MS methods were developed to quantitate both prodrugs and parent in plasma. The samples were analyzed in duplicate. Two sets of standard curves and three levels of QCs were run in each plate. Both the standards and QCs were run in duplicate. The table below is a summary of the protocols and guidance that was supplied to the scientists who carried out the experiments.

On to `C=C(C)[C@@H]1CC[C@]2(NCCN3CCS(=O)(=O)CC3)CC[C@]3(C)[C@H](CC[C@@H]4[C@@]5(C)CC=C(C6=CC[C@@](CF)(C(=O)OCOC(=O)CCCCCCC)CC6)C(C)(C)[C@@H]5CC[C@]43C)[C@@H]12` [Example 19, (Octanoyloxy)methyl (R)-4-((1R,3aS,5aR,5bR,7aR,11aS,11bR,13aR,13bR)-3a-((2-(1,1-dioxidothiomorpholino)ethyl)amino)-5a,5b,8,8,11a-pentamethyl-1-(prop-1-en-2-yl)-2,3,3a,4,5,5a,5b,6,7,7a,8,11,11a,11b,12,13,13a,13b-octadecahydro-1H-cyclopenta[a]chrysen-9-yl)-1-(fluoromethyl)cyclohex-3-ene-1-carboxylate], for which the “AUCINF (day)” value in data set [1] is given as 1393.

Consider `C=C(C)[C@@H]1CC[C@]2(NCCN3CCS(=O)(=O)CC3)CC[C@]3(C)[C@H](CC[C@@H]4[C@@]5(C)CC=C(C6=CC[C@@](CF)(C(=O)OCOC(=O)C(C)C)CC6)C(C)(C)[C@@H]5CC[C@]43C)[C@@H]12` [Example 21, (Isobutyryloxy)methyl (R)-4-((1R,3aS,5aR,5bR,7aR,11aS,11bR,13aR,13bR)-3a-((2-(1,1-dioxidothiomorpholino)ethyl)amino)-5a,5b,8,8,11a-pentamethyl-1-(prop-1-en-2-yl)-2,3,3a,4,5,5a,5b,6,7,7a,8,11,11a,11b,12,13,13a,13b-octadecahydro-1H-cyclopenta[a]chrysen-9-yl)-1-(fluoromethyl)cyclohex-3-ene-1-carboxylate], for which the “AUCINF (day)” value in data set [1] was determined as 1682.

For the molecule `C=C(C)[C@@H]1CC[C@]2(C(=O)O)CC[C@]3(C)[C@H](CC[C@@H]4[C@@]5(C)CC[C@H](OC(=O)CC(C)(C)C(=O)O)C(C)(C)[C@@H]5CC[C@]43C)[C@@H]12` [Bevirimat], the “reduction of HIV viral load (mean)” value in the data set on HIV (patients with trough levels >=20 μg/mL and no key baseline Gag polymorphisms at Q369, V370 or T371) is recorded as 1.3 log10/mL. The “viral load reduction vs patients without Gag polymorphisms” value in the data set on HIV (users with Gag polymorphisms at Q369, V370 or T371) was “significantly lower load reductions”.

As to `C=C(C)[C@@H]1CC[C@]2(NCCN3CCS(=O)(=O)CC3)CC[C@]3(C)[C@H](CC[C@@H]4[C@@]5(C)CC=C(C6=CC[C@@](CF)(C(=O)OCOC(=O)CCCCC)CC6)C(C)(C)[C@@H]5CC[C@]43C)[C@@H]12` [Example 18, (Hexanoyloxy)methyl (R)-4-((1R,3aS,5aR,5bR,7aR,11aS,11bR,13aR,13bR)-3a-((2-(1,1-dioxidothiomorpholino)ethyl)amino)-5a,5b,8,8,11a-pentamethyl-1-(prop-1-en-2-yl)-2,3,3a,4,5,5a,5b,6,7,7a,8,11,11a,11b,12,13,13a,13b-octadecahydro-1H-cyclopenta[a]chrysen-9-yl)-1-(fluoromethyl)cyclohex-3-ene-1-carboxylate], in data set [1], the “AUCINF (day)” value worked out at 2100.

As for `C=C(C)[C@@H]1CC[C@]2(NCC[C@]3(O)CC[C@@H](S(C)(=O)=O)CC3)CC[C@]3(C)[C@H](CC[C@@H]4[C@@]5(C)CC=C(C6=CC[C@@](COc7ncccc7C#N)(C(=O)O)CC6)C(C)(C)[C@@H]5CC[C@]43C)[C@@H]12` [Parent MI #3, (S)-1-(((3-cyanopyridin-2-yl)oxy)methyl)-4-((1R,3aS,5aR,5bR,7aR,11aS,11bR,13aR,13bR)-3a-((2-((1s,4R)-1-hydroxy-4-(methylsulfonyl)cyclohexyl)ethyl)amino)-5a,5b,8,8,11a-pentamethyl-1-(prop-1-en-2-yl)-2,3,3a,4,5,5a,5b,6,7,7a,8,11,11a,11b,12,13,13a,13b-octadecahydro-1H-cyclopenta[a]chrysen-9-yl)cyclohex-3-enecarboxylic acid], in data set [2], the AUC0-24h norm is recorded as 3.7 μg/mL *h/dose, the AUC0-last came out at 18000 ng·h/mL, the Bioavailability came out at 5.0 % F and the C24 worked out at 0.03 µg/mL. In data set [2], the Cmax amounted to 1300 ng/mL and the Tmax is 4.7 h. Besides, in data set [3], the “%AUCextra” value is on record as 24.8%, the AUClast came to 64197 ng·h/mL, the AUCtot is 87808 ng·h/mL and the Clearance was 0.20 mL/min/kg. Moreover, in data set [3], the MRT is reported as 22.2 h, the Vss came out at 0.25 L/kg and the “t(1/2)” value is 16.3 h. Besides, in data set [4], the “%AUCextra” value is given as 12.3%, the AUClast was determined as 449442 ng·h/mL, the AUCtot worked out at 515257 ng·h/mL and the Bioavailability stood at 35 % F. In data set [4], the Cmax was 6563 ng/mL and the “t(1/2)” value was 58.3 h.
